Results published in patent US20140045805A1, “Fragrance Compositions and Other Compositions Which Contain Naturally Occurring Substances Found in Corals” (priority 2007, published 2014).
Where two headings read alike, the source gives them in different places.

Assays:
[1] = test system: peripheral nasal chemosensory receptors; conditions: cited from earlier work; for Cross adaptation / fatigue of the receptors toward androstadienone: repeated stimulation, local electrical response of human vomeronasal epithelium, Monti-Bloch et al. 1994
[2] = test system: healthy volunteers (men and women); experiment: Local and general tolerability and safety of airborne nasal delivery; type: in vivo, human; conditions: 12 ng intranasal; for Adverse effects reported: during the intervention and 24 hours after
Protocol: The physiologic and psychological effects of pregna-5,20-dien-3β-ol were investigated in men and women. Additionally, the local and general tolerability and safety of pregna-5,20-dien-3β-ol delivered airborne to the nasal passages were also evaluated.
After completion of physiologic recordings and the modified DABS-70 (#3), all surface electrodes were removed and the subject went through an exit interview lasting 5 minutes. At this time the investigator recorded again the arterial blood pressure and also inquired the subject about his or her state of feelings, and also any possible adverse effect appearing during the study session.

[3] = test system: healthy volunteers (men and women); experiment: Physiologic parameters (electrophysiology) after nasal exposure; type: in vivo, human; set-up: Mean MA, BT (body temperature) / Mean MA, EMG (electromyogram) / Mean MA, BR (blinking reflex) / Mean MA, EEG-A (alpha cortical activity) / Mean MA, EEG-B (beta cortical activity) / Mean MA, EEG-T (theta cortical activity) / Mean MA, EDA (electrodermal activity): unit not given here; conditions: for Mean MA, BR (blinking reflex) / Mean MA, BT (body temperature) / Mean MA, EDA (electrodermal activity) / Mean MA, EEG-A (alpha cortical activity) / Mean MA, EEG-B (beta cortical activity) / Mean MA, EEG-T (theta cortical activity) / Mean MA, EMG (electromyogram) / Mean MA, HR (heart rate) / Mean MA, RR (respiration rate): 12 ng/20 min airborne nasal; for % Change MA, BR (blinking reflex) / % Change MA, EDA (electrodermal activity) / % Change MA, EEG-A (alpha cortical activity) / % Change MA, EEG-B (beta cortical activity) / % Change MA, EEG-T (theta cortical activity) / % Change MA, EMG (electromyogram) / % Change MA, HR (heart rate) / % Change MA, RR (respiration rate): 12 ng, vs baseline-2
Protocol: We assessed the resulting physiological responses and behavioral changes induced by nasal exposure to 12 ng pregna-5,20-dien-3β-ol in 76 volunteers (38 women and 38 men), age 18 to 46 (Table 1) using a placebo-controlled, single blind and crossover study design. The items of the modified DABS-70 were rearranged during consecutive administrations, in order to minimize the effect of learning.
Upon completion of the first DABS-70, each subject was invited to rest supine in a comfortable medical bed in a quiet room and several non-invasive electrode leads and transducers were positioned on the surface skin of the arms, face and skull to help measure physiologic parameters (FIG. 4). A conventional grounding electrode and a reference electrode lead were positioned on the surface skin of the mastoid process and the right ear lobe respectively, with the aid of hypoallergenic conductive paste. Other non-invasive standard electrode-leads and transducers were used for recording the following physiologic parameters: • Electrocardiogram (EKG), standard bipolar I. • Electropneumogram (EPG), strain gauge around lower thorax. • Electrodermal activity (EDA), palm surface of 3rd and 4th finger (right hand). • Blinking reflex (BR), upper and lower left eye-lid. • Electromyogram (EMG), bilaterally in chin area. • Body temperature (BT), mini-thermistor probe in external ear canal. • Electroencephalogram (EEG), CzA2 and T4A2 from the […] International EEG electrode placement chart.
During the course of a recording session, physiologic readings were performed in four consecutive instances, before and after randomized administration of active substance or control (FIG. 4): PHYS-1 recording, starting 5 minutes before the first randomized dosing; PHYS-2, starting 15 minutes after administration of the first randomized dosing; PHYS-3, starting 5 minutes before administration of the second randomized dosing; and PHYS-4 starting 15 minutes after administration of the second randomized dosing.
All physiological recordings were pre-amplified and digitized (Biopac Systems), and continuously computer monitored and stored (Macintosh G3), for further off-line processing and analysis (for a detailed explanation see Monti-Bloch et al, 1994, 1998).
Active substance (pregna-5,20-dien-3β-ol) and control were freshly prepared on 0.7 cm×10 cm perfumery grade smelling strips 24 hours before the experiment. A perfumery grade smelling strip was positioned on the upper lip of the subject for delivery of control or active substance to the nasal passages for a period of 20 minutes. Each breath carried vapors of pregna-5,20-dien-3β-ol or control (air) from the paper strip to the nasal passages.
Perfumery grade smelling strips containing either pregna-5,20-dien-3β-ol or control were prepared as follows: 100 μl of stock solution containing 100 mg pregna-5,20-dien-3β-ol/10 mL ethanol (95%) was added to a clean paper strip. Ethanol was allowed to evaporate overnight in a clean fume hood, and 1 mg of dry crystals of pregna-5,20-dien-3β-ol remained embedded in the dried perfumery grade smelling strip. Control was a perfumery grade smelling strip prepared following the same procedure but the solution was devoid of active substance.
The following assumptions were used to calculate the quantity of pregna-5,20-dien-3β-ol delivered to the nasal passages during a study session: a) the quantity of pregna-5,20-dien-3β-ol arriving to the nasal passages with each breath is ≈40 pg (determined as described below); b) the average respiratory rate at rest in men and women is ≈15 breaths per minute; and c) the subject was exposed to pregna-5,20-dien-3β-ol for 20 min during the entire study session. The total calculated quantity of pregna-5,20-dien-3β-ol delivered to the nasal passages over 20 min (exposure during the study session) was calculated as follows: 40 pg/breath×15 breaths/min×20 min=12000 pg=12 ng. […]

[4] = men, listed as Pregna-5,20-dien-3β-ol
[5] = women, listed as Pregna-5,20-dien-3β-ol

Compound: C=C[C@H]1CC[C@H]2[C@@H]3CC=C4C[C@@H](O)CC[C@]4(C)[C@H]3CC[C@]12C [pregna-5,20-dien-3β-ol, Pregna-5,20-dien-3β-ol]
- Depolarization of the electrogram of peripheral nasal chemosensory receptors ([1]; androstadienone 27 picograms, muricin aglycone 30 picograms, adapted from Monti-Bloch et al. (1994)): robust depolarization
- Cross adaptation / fatigue of the receptors toward androstadienone ([1]; listed as Muricin aglycone): elicit cross adaptation
- Cross adaptation / fatigue of the receptors toward androstadienone ([1]; listed as muricin aglycone): produces fatigue of the receptors
- Arterial blood pressure, beginning of session vs exit interview [2]: absence of significant arterial blood pressure difference
- Tolerability ([2]; airborne, all volunteers of both gender groups): well tolerated
- Adverse effects reported [2]: no adverse effects reported
- Adverse effects reported ([2]; listed as Pregna-5,20-dien-3β-ol): no reports of local or general adverse side effects
- Local nasal discomfort / clinical examination of the nasal passages ([2]; end of the recording session): did not reveal local lesions and/or inflammation
- Mean MA, BR (blinking reflex) ([3]; men): 25.970
- Mean MA, BT (body temperature) ([3]; men): −0.011
- Mean MA, EDA (electrodermal activity) ([3]; men): 3.467
- Mean MA, EEG-A (alpha cortical activity) ([3]; men): 29.613
- Mean MA, EEG-B (beta cortical activity) ([3]; men): 57.853
- Mean MA, EEG-T (theta cortical activity) ([3]; men): 17.630
- Mean MA, EMG (electromyogram) ([3]; men): 20.067
- Mean MA, HR (heart rate) ([3]; men): 66.323
- Mean MA, RR (respiration rate) ([3]; men): 13.133
- % Change MA, BR (blinking reflex) ([3]; men): −22.392%
- % Change MA, EDA (electrodermal activity) ([3]; men): 44.458%
- % Change MA, EEG-A (alpha cortical activity) ([3]; men): 2.798%
- % Change MA, EEG-B (beta cortical activity) ([3]; men): −13.691%
- % Change MA, EEG-T (theta cortical activity) ([3]; men): 14.036%
- % Change MA, EMG (electromyogram) ([3]; men): 64.524%
- % Change MA, HR (heart rate) ([3]; men): −2.609%
- % Change MA, RR (respiration rate) ([3]; men): −19.097%
- % Change MA, EEG-A (alpha cortical activity) [3, 4]: did not have a significant effect
- % Change MA, EEG-B (beta cortical activity) [3, 4]: did not have a significant effect
- % Change MA, HR (heart rate) [3, 4]: −2.6%
- Mean MA, BR (blinking reflex) ([3]; women): 28.483
- Mean MA, BT (body temperature) ([3]; women): 0.064
- Mean MA, EDA (electrodermal activity) ([3]; women): 3.379
- Mean MA, EEG-A (alpha cortical activity) ([3]; women): 27.724
- Mean MA, EEG-B (beta cortical activity) ([3]; women): 61.069
- Mean MA, EEG-T (theta cortical activity) ([3]; women): 17.897
- Mean MA, EMG (electromyogram) ([3]; women): 25.276
- Mean MA, HR (heart rate) ([3]; women): 64.828
- Mean MA, RR (respiration rate) ([3]; women): 13.379
- % Change MA, BR (blinking reflex) ([3]; women): −31.859%
- % Change MA, EDA (electrodermal activity) ([3]; women): 71.784%
- % Change MA, EEG-A (alpha cortical activity) ([3]; women): −14.871%
- % Change MA, EEG-B (beta cortical activity) ([3]; women): −1.023%
- % Change MA, EEG-T (theta cortical activity) ([3]; women): 24.001%
- % Change MA, EMG (electromyogram) ([3]; women): 55.545%
- % Change MA, HR (heart rate) ([3]; women): −3.000%
- % Change MA, RR (respiration rate) ([3]; women): −16.030%
- % Change MA, EEG-A (alpha cortical activity) [3, 5]: did not have a significant effect
- % Change MA, EEG-B (beta cortical activity) [3, 5]: did not have a significant effect
- % Change MA, HR (heart rate) [3, 5]: −3.0%
- % Change MA, RR (respiration rate) [3, 5]: −16.03%
